Assay results reported in patent publication US11890317B2, “Cell-protecting composition containing cyclo histidine-proline as active ingredient” (NovMetaPharma Co., Ltd., priority 2016, dated 2024).

Experiments:
[1] = system: liver cells (Chang liver cells); experiment: Inhibition of acetaminophen (APAP)-induced apoptosis of liver cells, cell viability by cell counting kit-8; assay type: cell-based
Protocol: Specifically, the acetaminophen was purchased from Sigma Chemical Co. (St. Louis, Mo., USA). The liver cells (Chang liver cells) were purchased from the American Type Culture Collection (ATCC; Manassas, VA, USA). The present inventors simultaneously treated and cultured the liver cell (Chang liver cell) with CHP 0.1, 1, 5 or 10 mg/mL respectively together with APAP 15 mM for 24 hours (FIG. 2A).
Further, the present inventors pre-treated and pre-cultured the liver cell (Chang liver cell) with CHP 0.1, 1, 5 or 10 mg/mL for 24 hours and subsequently post-treated and post-cultured the liver cell (Chang liver cell) with APAP 15 mM for 24 hours (FIG. 2B). The cell viability was analyzed using cell counting kit-8 (Dojindo Laboratories; Kumamoto, Japan). Subsequently, the cell viability was measured with a microplate reader (Molecular Devices, LLC; Sunnyvale, CA, USA).

[2] = system: kidney cells (LLC-PK1 cells); experiment: Inhibition of gentamicin (GM)-induced apoptosis of kidney cells, cell viability by cell counting kit-8; assay type: cell-based
Protocol: Specifically, the cyclo histidine-proline (CHP) was produced by requesting only a target spec (99% purity) from a peptide manufacturer (Bachem; Bubendorf, Switzerland). The gentamycin was purchased from Sigma Chemical Co. (St. Louis, Mo., USA). The kidney cells (LLC-PK1 cells) were purchased from the American Type Culture Collection (ATCC; Manassas, VA, USA). The present inventors simultaneously treated and cultured the kidney cell (LLC-PK1 cell) with CHP 0.1, 1, 5 or 10 mg/mL respectively together with GM 5 mg/mL for 6 hours (FIG. 1A).
Further, the present inventors pre-treated and pre-cultured the kidney cell (LLC-PK1 cell) with CHP 0.1, 1, 5 or 10 mg/mL for 2 hours and subsequently post-treated and post-cultured the kidney cell (LLC-PK1 cell) with GM 5 mg/mL for 4 hours (FIG. 1B). The cell viability was analyzed using cell counting kit-8 (Dojindo Laboratories; Kumamoto, Japan). Subsequently, the cell viability was measured with a microplate reader (Molecular Devices, LLC; Sunnyvale, CA, USA).

SD mice = experiment: Liver function protection against cisplatin liver toxicity in mice, serum ALT and AST; assay type: in vivo; details: CHP 1, 5 or 10 mg/L in drinking water for 1 week, then cisplatin 7.5 mg/kg i.p., serum after 24 hours
Protocol: To determine the protective effect of CHP on liver toxicity in mice, the present inventors purchased SD mice from Koatech, and the mice were raised under constant conditions (temperature: 23±3° C., relative humidity: 55±10%, daily cycle: 12 hours). Five mice were grouped into one group. We fed water and food to mice in the cage. We adapted the mice for experiments for one week prior to the experiment. After the adaption period, the mice were grouped into five groups.
1 group ingested water and was set as a negative control. […] These 3, 4 and 5 groups were set as liver damage prevention effect groups. The CHP ingestion using drinking water was performed once every two days.
To measure ALT and AST, we collected blood from the abdominal aorta from a mouse. We separated only serum from the blood using a centrifugal separator and analyzed the serum using an automatic analyzer (Hitachi 7180; Tokyo, Japan).
We conducted individual comparisons using the […] post-test thereon.

ICR mice [3] = experiment: Kidney function protection against cisplatin kidney toxicity in mice, serum creatinine; assay type: in vivo; details: CHP 1 mg/kg orally daily for 1 week, then cisplatin 10 mg/kg i.p., serum after 72 hours, FIG. 5
Excerpt: (§1) Five mice were grouped into one group. We fed water and food to mice in the cage. We adapted the mice for experiments for one week prior to the experiment.

ICR mice [4] = experiment: Kidney function protection against cisplatin kidney toxicity in mice, serum BUN; assay type: in vivo; details: CHP 1 mg/kg orally daily for 1 week, then cisplatin i.p., serum after 24 hours, FIG. 6
Excerpt: as §1

CC(=O)Nc1ccc(O)cc1 [APAP, acetaminophen, reference compound]
apoptosis of liver cells caused by the drug ([1]; APAP 15 mM): induced apoptosis of liver cells

O=C1N[C@@H](Cc2c[nH]cn2)C(=O)N2CCC[C@@H]12 [CHP, cyclo histidine-proline]
inhibition of acetaminophen (APAP)-induced apoptosis, liver cells co-treated with APAP and CHP ([1]; CHP 0.1, 1, 5 or 10 mg/mL together with APAP 15 mM for 24 hours, FIG. 2A): significantly inhibited | inhibition of apoptosis of liver cells induced by acetaminophen (APAP) ([1]; CHP 0.1, 1, 5 or 10 mg/mL, APAP 15 mM, FIG. 2A and 2B): inhibited the apoptosis of liver cells induced by the acetaminophen (APAP) in a concentration-dependent manner | inhibition of gentamicin (GM)-induced apoptosis, kidney cells pre-treated with CHP ([2]; CHP 0.1, 1, 5 or 10 mg/mL pre-treatment 2 hours, then GM 5 mg/mL 4 hours, FIG. 1B): greatly inhibited | inhibition of apoptosis of kidney cells induced by gentamicin (GM) ([2]; CHP 0.1, 1, 5 or 10 mg/mL, GM 5 mg/mL, FIG. 1A and 1B): inhibited the apoptosis of kidney cells induced by the gentamicin (GM) in a concentration-dependent manner | cisplatin-induced ALT (SD mice; FIG. 3): significantly reduced | cisplatin-induced AST (SD mice; FIG. 4): significantly reduced | cisplatin-induced creatinine (ICR mice [3]): significantly reduced | cisplatin-induced BUN (ICR mice [4]): significantly reduced

gentamicin [GM, reference compound]
apoptosis of kidney cells caused by the drug ([2]; GM 5 mg/mL): induced apoptosis of kidney cells
